Results taken from the supplement of paper PMC11424490.

Assays:
NCI-H2122 [1] = assay: combination cScore with sotorasib (Bliss gap around IC50) (%PoC); higher = stronger additive effect
Experimental: (§1)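 Combination screen of 179 inhibitors with the KRAS G12C inhibitor sotorasib (AMG510) in dose matrices, CellTiter-Glo readout in NCI-H2122 (72 h), SW837 (144 h) and NCI-H358 cells. The cScore is the mean Bliss-independence gap (expected minus observed viability, in %PoC) over a 3x3 field around the IC50s of both drugs. Positive means additive, and >~10 is stated as clear additive.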

SW837 [2] = assay: as above
Experimental: as §1

NCI-H2122 [3] = assay: combination cScore with adagrasib (Bliss gap around IC50) (%PoC); higher = stronger additive effect
Procedure, shortened: (§2)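 NCI-H2122, NCI-H358 and SW837 cells were plated in 384-well plates at 500 or 800 cells per well, treated with concentration matrices after 24 h, and grown for 72 h (SW837 for 144 h). Luminescence from CellTiter-Glo was expressed as percent of control relative to vehicle wells and fitted with four-parameter curves. The score is the mean Bliss-independence gap, expected minus measured viability, across a field around both monotherapy IC50 values, or across the top concentrations where no IC50 was reached.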

SW837 [4] = assay: as above
Procedure, shortened: as §2

SMILES | combination cScore with sotorasib (NCI-H2122 [1]) | combination cScore with sotorasib (SW837 [2]) | combination cScore with adagrasib (NCI-H2122 [3]) | combination cScore with adagrasib (SW837 [4])
CC(C)(C(=O)NCC(F)(F)C(F)(F)F)C(=O)N[C@@H]1C(=O)Nc2ccccc2-c2ccccc21 + C=CC(=O)N1CCN(c2nc(=O)n(-c3c(C)ccnc3C(C)C)c3nc(-c4c(O)cccc4F)c(F)cc23)[C@@H](C)C1 [sotorasib] | 2.56 | 21.5 |  | 
CCc1cnn2c(NCc3ccc[n+]([O-])c3)cc(N3CCCC[C@H]3CCO)nc12 + C=CC(=O)N1CCN(c2nc(=O)n(-c3c(C)ccnc3C(C)C)c3nc(-c4c(O)cccc4F)c(F)cc23)[C@@H](C)C1 [sotorasib] | 7.04 | 2.65 |  | 
CN(C)CCCC(=O)Nc1n[nH]c2nnc(-c3ccccc3)cc12 + C=CC(=O)N1CCN(c2nc(=O)n(-c3c(C)ccnc3C(C)C)c3nc(-c4c(O)cccc4F)c(F)cc23)[C@@H](C)C1 [sotorasib] | -11.8 | -4.53 |  | 
COc1ccc(Cn2ccc3ccc(C(=O)NO)cc32)cc1 + C=CC(=O)N1CCN(c2nc(=O)n(-c3c(C)ccnc3C(C)C)c3nc(-c4c(O)cccc4F)c(F)cc23)[C@@H](C)C1 [sotorasib] | 0.89 | 10.9 |  | 
COc1ccc2nc3ccc(OC)cc3c(SCCCN)c2c1 + C=CC(=O)N1CCN(c2nc(=O)n(-c3c(C)ccnc3C(C)C)c3nc(-c4c(O)cccc4F)c(F)cc23)[C@@H](C)C1 [sotorasib] | 11.5 | -2.67 |  | 
C[C@@H](Oc1cc(-c2cnn(C3CCNCC3)c2)cnc1N)c1c(Cl)ccc(F)c1Cl + C=CC(=O)N1CCN(c2nc(=O)n(-c3c(C)ccnc3C(C)C)c3nc(-c4c(O)cccc4F)c(F)cc23)[C@@H](C)C1 [sotorasib] | 2.31 | 13.5 |  | 
Cc1[nH]c(/C=C2\C(=O)Nc3ccc(S(=O)(=O)Cc4c(Cl)cccc4Cl)cc32)c(C)c1C(=O)N1CCC[C@@H]1CN1CCCC1 + C=CC(=O)N1CCN(c2nc(=O)n(-c3c(C)ccnc3C(C)C)c3nc(-c4c(O)cccc4F)c(F)cc23)[C@@H](C)C1 [sotorasib] | 0.62 | -0.04 |  | 
NC(=O)c1ccc(-c2nc(-c3ccccn3)c(-c3ccc4c(c3)OCO4)[nH]2)cc1 + C=CC(=O)N1CCN(c2nc(=O)n(-c3c(C)ccnc3C(C)C)c3nc(-c4c(O)cccc4F)c(F)cc23)[C@@H](C)C1 [sotorasib] | 3.33 | 4.91 |  | 
NC(=O)c1cnc(N[C@@H]2CCCC[C@@H]2N)nc1Nc1cccc(-n2nccn2)c1 + C=CC(=O)N1CCN(c2nc(=O)n(-c3c(C)ccnc3C(C)C)c3nc(-c4c(O)cccc4F)c(F)cc23)[C@@H](C)C1 [sotorasib] | 7.42 | -0.31 |  | 
O=[N+]([O-])c1ccc(NCCNc2ncc(-c3ncc[nH]3)c(-c3ccc(Cl)cc3Cl)n2)nc1 + C=CC(=O)N1CCN(c2nc(=O)n(-c3c(C)ccnc3C(C)C)c3nc(-c4c(O)cccc4F)c(F)cc23)[C@@H](C)C1 [sotorasib] | -9.14 | 3.71 |  | 
On1ncc2cc(CCc3nn[nH]n3)ccc21 + C=CC(=O)N1CCN(c2nc(=O)n(-c3c(C)ccnc3C(C)C)c3nc(-c4c(O)cccc4F)c(F)cc23)[C@@H](C)C1 [sotorasib] | -2.12 | -12.1 |  | 
c1ccc(-c2nn3c(c2-c2ccnc4cc(OCCN5CCOCC5)ccc24)CCC3)nc1 + C=CC(=O)N1CCN(c2nc(=O)n(-c3c(C)ccnc3C(C)C)c3nc(-c4c(O)cccc4F)c(F)cc23)[C@@H](C)C1 [sotorasib] | 8.94 | 8.58 |  | 
CC(=O)Nc1cccc(-n2c(=O)n(C3CC3)c(=O)c3c(Nc4ccc(I)cc4F)n(C)c(=O)c(C)c32)c1 [Trametinib] + C=C(F)C(=O)N1CCN(c2nc(OC[C@@H]3CCCN3C)nc3c2CCN(c2cccc4cccc(Cl)c24)C3)C[C@@H]1CC#N [adagrasib] |  |  | 6.74 | 13.6
CC1=C(/C=C/C(C)=C/C=C/C(C)=C/C(=O)O)C(C)(C)CCC1 [Tretinoin] + C=C(F)C(=O)N1CCN(c2nc(OC[C@@H]3CCCN3C)nc3c2CCN(c2cccc4cccc(Cl)c24)C3)C[C@@H]1CC#N [adagrasib] |  |  | -2.19 | 2.87
COc1cc2c(NC3CCN(C(C)C)CC3)nc(C3CCCCC3)nc2cc1OCCCN1CCCC1 [UNC0638] + C=C(F)C(=O)N1CCN(c2nc(OC[C@@H]3CCCN3C)nc3c2CCN(c2cccc4cccc(Cl)c24)C3)C[C@@H]1CC#N [adagrasib] |  |  | 5.77 | 13.2
CC(C)Nc1cc(-c2c[nH]c(C(=O)N[C@H](CO)c3cccc(Cl)c3)c2)c(Cl)cn1 [Ulixertinib] + C=C(F)C(=O)N1CCN(c2nc(OC[C@@H]3CCCN3C)nc3c2CCN(c2cccc4cccc(Cl)c24)C3)C[C@@H]1CC#N [adagrasib] |  |  | -12.2 | 2.22
CS(=O)(=O)c1ccc(-c2cnc(N)c(C(=O)Nc3ccccc3)n2)cc1 [VE-821] + C=C(F)C(=O)N1CCN(c2nc(OC[C@@H]3CCCN3C)nc3c2CCN(c2cccc4cccc(Cl)c24)C3)C[C@@H]1CC#N [adagrasib] |  |  | 4.3 | 12.8
CNCc1ccc(-c2cc(-c3nc(-c4ccc(S(=O)(=O)C(C)C)cc4)cnc3N)on2)cc1 [VE-822/VX-970] + C=C(F)C(=O)N1CCN(c2nc(OC[C@@H]3CCCN3C)nc3c2CCN(c2cccc4cccc(Cl)c24)C3)C[C@@H]1CC#N [adagrasib] |  |  | 3.08 | -9.66
CCCC(CCC)C(=O)O [Valproic acid] + C=C(F)C(=O)N1CCN(c2nc(OC[C@@H]3CCCN3C)nc3c2CCN(c2cccc4cccc(Cl)c24)C3)C[C@@H]1CC#N [adagrasib] |  |  | -2.93 | 2.04
C[C@]1(c2nc3c(C(N)=O)cccc3[nH]2)CCCN1 [Veliparib] + C=C(F)C(=O)N1CCN(c2nc(OC[C@@H]3CCCN3C)nc3c2CCN(c2cccc4cccc(Cl)c24)C3)C[C@@H]1CC#N [adagrasib] |  |  | -0.59 | 5.64
CC[C@]1(O)C[C@@H]2CN(CCc3c([nH]c4ccccc34)[C@@](C(=O)OC)(c3cc4c(cc3OC)N(C)[C@H]3[C@@](O)(C(=O)OC)[C@H](OC(C)=O)[C@]5(CC)C=CCN6CC[C@]43[C@@H]65)C2)C1 [Vinblastine] + C=C(F)C(=O)N1CCN(c2nc(OC[C@@H]3CCCN3C)nc3c2CCN(c2cccc4cccc(Cl)c24)C3)C[C@@H]1CC#N [adagrasib] |  |  | -3.66 | 4.5
CCC1=C[C@@H]2CN(C1)Cc1c([nH]c3ccccc13)[C@@](C(=O)OC)(c1cc3c(cc1OC)N(C)[C@H]1[C@@](O)(C(=O)OC)[C@H](OC(C)=O)[C@]4(CC)C=CCN5CC[C@]31[C@@H]54)C2 [Vinorelbine] + C=C(F)C(=O)N1CCN(c2nc(OC[C@@H]3CCCN3C)nc3c2CCN(c2cccc4cccc(Cl)c24)C3)C[C@@H]1CC#N [adagrasib] |  |  | -8.58 | 3.93
CS(=O)(=O)c1ccc(C(=O)Nc2ccc(Cl)c(-c3ccccn3)c2)c(Cl)c1 [Vismodegib] + C=C(F)C(=O)N1CCN(c2nc(OC[C@@H]3CCCN3C)nc3c2CCN(c2cccc4cccc(Cl)c24)C3)C[C@@H]1CC#N [adagrasib] |  |  | 3.61 | 15.7
O=C(CCCCCCC(=O)Nc1ccccc1)NO [Vorinostat] + C=C(F)C(=O)N1CCN(c2nc(OC[C@@H]3CCCN3C)nc3c2CCN(c2cccc4cccc(Cl)c24)C3)C[C@@H]1CC#N [adagrasib] |  |  | 1.67 | 14.9
CN[C@H]1CN(c2ccc3c(=O)c(C(=O)O)cn(-c4nccs4)c3n2)C[C@@H]1OC [Vosaroxin] + C=C(F)C(=O)N1CCN(c2nc(OC[C@@H]3CCCN3C)nc3c2CCN(c2cccc4cccc(Cl)c24)C3)C[C@@H]1CC#N [adagrasib] |  |  | 5.97 | 4.99
COc1cc2nccc(Oc3ccc(NC(=O)C4(C(=O)Nc5ccc(F)cc5)CC4)cc3)c2cc1OC [XL-184] + C=C(F)C(=O)N1CCN(c2nc(OC[C@@H]3CCCN3C)nc3c2CCN(c2cccc4cccc(Cl)c24)C3)C[C@@H]1CC#N [adagrasib] |  |  | 4.53 | 9.25
